# Biological target: human PAD4 (hPAD4) (Homo sapiens, UniProt Q9UM07)
# Assay: RFMS human PAD4 functional assay (rapid-fire mass spectrum)
# Type: biochemical
# Conditions: 5 nM hPAD4 enzyme, 250 μM BAEE, 50 μM Calcium; 30 min preincubation, 90 min reaction at 37° C.
# Experimental: Compounds of the present invention were assayed as inhibitors of PAD4 using the assay protocol described below.
# RFMS tinman PAD4 Functional Assay:
# Compounds were solubilized in 100% DMSO to achieve a 10 mM compound concentration. Compound stock solutions were stored at RT. A series of dilutions were prepared in DMSO and mixed 8 times with 20 μl, mixing volume. Final top concentration of compound in the assay is 50 μM. […] 1-90 min enzyme/substrate reaction, 30 min reaction with phenyl glyoxal at 37° C. • Stop solution: 40 μl 5% TCA in ACN
# 0.13 μL of compound solution was added to 13 μL of 10 nM PAD4 in assay buffer. After 30 min 13 μl of 500 μM of BAEE was added in 25 mM hepes, pH 7.5, 5 mM NaCl, 1 mM DTT, 0.2 mg/ml BS A, 0.01% CHAPS, 50 μM Calcium, 5 μM TPEN was added and the reaction incubated for 90 min at 37° C. The enzymatic reaction was quenched by addition of 15 μl of 6.1N TCA, 100% Final Concentration is 20%, 35 μl of 8.5 mM phenyl glyoxal (final concentration 4 mM) is then added and the reaction is incubated for 30 min at 37° C.
# After 30 minutes the plates are spun down to remove all precipitate. The enzyme reaction was quenched with an equal volume of methanol containing internal standard (modified citrulline). Samples were loaded onto the Rapid Fire RF300 system (Agilent) wherein they were first sipped for 1000 ms and then directly loaded to a C18 separations cartridge using a mixture of acetonitrile containing 0.01% formic acid for 3000 ms desalting. The flow rate of the mobile phase was 1.5 ml/min.
# The dwell time for each transition was set at 200 ms, and the ESI voltage was used at 5500 with a source temperature of 400° C. Extracted ion peaks for each transition were integrated using the Rapid Fire Integrator software. Peak area of analyte was normalized with internal standard).
# Chain of human PAD4 (hPAD4) (Q9UM07 whole entry): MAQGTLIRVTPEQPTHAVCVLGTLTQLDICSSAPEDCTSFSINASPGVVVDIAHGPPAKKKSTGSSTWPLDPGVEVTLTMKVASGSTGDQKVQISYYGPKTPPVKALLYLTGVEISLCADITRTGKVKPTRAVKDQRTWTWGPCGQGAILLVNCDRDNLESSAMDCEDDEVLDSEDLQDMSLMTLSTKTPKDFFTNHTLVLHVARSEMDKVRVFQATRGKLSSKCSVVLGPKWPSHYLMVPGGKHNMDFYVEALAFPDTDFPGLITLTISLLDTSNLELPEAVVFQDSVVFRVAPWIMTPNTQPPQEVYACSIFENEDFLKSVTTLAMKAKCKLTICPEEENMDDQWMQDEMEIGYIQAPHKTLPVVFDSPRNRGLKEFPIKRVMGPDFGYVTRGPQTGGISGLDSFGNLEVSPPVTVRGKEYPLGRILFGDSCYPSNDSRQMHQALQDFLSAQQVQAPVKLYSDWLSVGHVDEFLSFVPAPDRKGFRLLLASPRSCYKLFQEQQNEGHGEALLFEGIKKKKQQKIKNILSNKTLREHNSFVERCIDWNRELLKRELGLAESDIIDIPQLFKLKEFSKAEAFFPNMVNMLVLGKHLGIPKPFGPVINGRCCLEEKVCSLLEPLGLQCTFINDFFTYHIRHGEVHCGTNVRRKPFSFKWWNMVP
row,SMILES,IC50 [µM]
1,"CCC(=O)N1CC(Cn2c(-c3cc4cccnc4n3CC3CC3)nc3cc(C(=O)N4C[C@H]5CC[C@@H]4[C@@H]5N)cc(OC)c32)C1 [Example 134, 1-[3-({5-[(1R,4R,7R)-7-amino-2-azabicyclo[2.2.1]heptane-2-carbonyl]-2-[1-(cyclopropylmethyl)-1H-pyrrolo[2,3-b]pyridin-2-yl]-7-methoxy-1H-1,3-benzodiazol-1-yl}methyl)azetidin-1-yl]propan-1-one]",0.193
2,"COc1cc(C(=O)N2CC3CCC2[C@@H]3N)cc2nc(-c3cc4ccccc4n3CC3CC3)n(Cc3cnn(-c4ncccn4)c3)c12 (stereo partly drawn) [Example 402, (7R)-2-{2-[1-(cyclopropylmethyl)-1H-indol-2-yl]-7-methoxy-1-{[1-(pyrimidin-2-yl)-1H-pyrazol-4-yl]methyl}-1H-1,3-benzodiazole-5-carbonyl}-2-azabicyclo[2.2.1]heptan-7-amine]",0.066
3,"COc1cc(C(=O)N2CC3CCC2[C@@H]3N)cc2nc(-c3cc4ccccc4n3CC3CC3)n(Cc3cnn(-c4ccc(C)cn4)c3)c12 (stereo partly drawn) [Example 404, (7R)-2-{2-[1-(cyclopropylmethyl)-1H-indol-2-yl]-7-methoxy-1-{[1-(5-methylpyridin-2-yl)-1H-pyrazol-4-yl]methyl)-1H-1,3-benzodiazole-5-carbonyl}-2-azabicyclo[2.2.1]heptan-7-amine]",0.066
4,N#Cc1ccc(C(=O)N2CC(Cn3c(-c4cc5cccnc5n4CC4CC4)nc4cc(C(=O)N5CC6CCC5[C@@H]6N)cc(F)c43)C2)cc1 (stereo partly drawn) [Example 462],0.07

# Stronger by IC50, values ahead:
row,IC50 [µM],SMILES
1,0.053,"COc1cc(C(=O)N2CC3CCC2[C@@H]3N)cc2nc(-c3cc4ccccc4n3CC3CC3)n(CC3CN(C(=O)c4cscn4)C3)c12 (stereo partly drawn) [Example 453, (7R)-2-{2-[1-(cyclopropylmethyl)-1H-indol-2-yl]-7-methoxy-1-{[1-(1,3-thiazole-4-carbonyl)azetidin-3-yl]methyl}-1H-1,3-benzodiazole-5-carbonyl}-2-azabicyclo[2.2.1]heptan-7-amine]"
2,0.047,"COc1cc(C(=O)N2C[C@H]3CC[C@@H]2[C@@H]3N)cc2nc(-c3cc4cccnc4n3CC3CC3)n(C[C@H]3CCN(c4cncnc4C#N)C3)c12 [Example 206, 5-[(3S)-3-({5-[(1R,4R,7R)-7-amino-2-azabicyclo[2.2.1]heptane-2-carbonyl]-2-[1-(cyclopropylmethyl)-1H-pyrrolo[2,3-b]pyridin-2-yl]-7-methoxy-1H-1,3-benzodiazol-1-yl}methyl)pyrrolidin-1-yl]pyrimidine-4-carbonitrile]"
3,0.034,"COc1cc(C(=O)N2C[C@H]3CC[C@@H]2[C@@H]3N)cc2nc(-c3cc4cccnc4n3CC3CC3)n(C3CN(C(=O)c4ccnc(Cl)n4)C3)c12 [Example 94, (1R,4R,7R)-2-{1-[1-(2-chloropyrimidine-4-carbonyl)azetidin-3-yl]-2-[1-(cyclopropylmethyl)-1H-pyrrolo[2,3-b]pyridin-2-yl]-7-methoxy-1H-1,3-benzodiazole-5-carbonyl}-2-azabicyclo[2.2.1]heptan-7-amine]"
4,0.029,"COc1cc(C(=O)N2CC3CCC2[C@@H]3N)cc2nc(-c3cc4ccccc4n3CC3CC3)n(Cc3cnn(-c4cccnc4)c3)c12 (stereo partly drawn) [Example 368, (7R)-2-{2-[1-(cyclopropylmethyl)-1H-indol-2-yl]-7-methoxy-1-{[1-(pyridin-3-yl)-1H-pyrazol-4-yl]methyl}-1H-1,3-benzodiazole-5-carbonyl}-2-azabicyclo[2.2.1]heptan-7-amine]"
5,0.025,"COc1cc(C(=O)N2CC3CCC2[C@@H]3N)cc2nc(-c3cc4ccccc4n3CC3CC3)n(CC3CN(C(=O)c4ccnc(Cl)c4)C3)c12 (stereo partly drawn) [Example 424, (7R)-2-(1-{[1-(2-chloropyridine-4-carbonyl)azetidin-3-yl]methyl}-2-[1-(cyclopropylmethyl)-1H-indol-2-yl]-7-methoxy-1H-1,3-benzodiazole-5-carbonyl)-2-azabicyclo[2.2.1]heptan-7-amine]"

# — US12692254B2, “Benzimidazole inhibitors of PAD enzymes” (BRISTOL-MYERS SQUIBB COMPANY, priority 2018, dated 2026)
